Target: BRD4 (Homo sapiens, UniProt O60885)
Assay: Time Resolved Fluorescence Resonance Energy Transfer (TR-FRET) binding assay, BRD4
Conditions: one of the FRET assays described; read-out: FRET BRD4 IC50

`Cc1noc(C)c1-c1cnc2c3ccc(C(C)(C)O)cc3n(C(c3c(F)cccc3F)C3CCOCC3)c2c1` (single isomer, unassigned) [Example 144, 2-{5-[(2,6-Difluorophenyl)(oxan-4-yl)methyl]-3-(dimethyl-1,2-oxazol-4-yl)-5H-pyrido[3,2-b]indol-7-yl}propan-2-ol] and `Cc1noc(C)c1-c1cnc2c3ccc(C(C)(C)O)cc3n(C(c3cccc(F)c3F)C3CCOCC3)c2c1` (single isomer, unassigned) [Example 145, 2-{5-[(2,3-Difluorophenyl)(oxan-4-yl)methyl]-3-(dimethyl-1,2-oxazol-4-yl)-5H-pyrido[3,2-b]indol-7-yl}propan-2-ol] cannot be ordered by IC50: < 5 nM for the first, < 5 nM for the second.

`COc1cc(F)c(C(C2CCOCC2)n2c3cc(C(C)(C)O)ccc3c3ncc(-c4c(C)nnn4C)cc32)cc1F` (single isomer, unassigned) [Example 124, 2-{5-[(2,5-Difluoro-4-methoxyphenyl)(oxan-4-yl)methyl]-3-(dimethyl-1H-1,2,3-triazol-5-yl)-5H-pyrido[3,2-b]indol-7-yl}propan-2-ol] and `Cc1nnn(C)c1-c1cnc2c3ccc(C(C)(C)O)cc3n(C(c3ccc(F)cc3F)C3CCOCC3)c2c1` (single isomer, unassigned) [Example 136, 2-{5-[(2,4-Difluorophenyl)(oxan-4-yl)methyl]-3-(dimethyl-1H-1,2,3-triazol-5-yl)-5H-pyrido[3,2-b]indol-7-yl}propan-2-ol] cannot be ordered by IC50: < 5 nM for the first, < 5 nM for the second.

`Cc1nnn(C)c1-c1cnc2c3ccc(CC(C)(C)O)cc3n([C@H](c3ccc(F)cc3)C3CCOCC3)c2c1` [Example 256, 1-[3-(Dimethyl-1H-1,2,3-triazol-5-yl)-5-[(S)-(4-fluorophenyl)(oxan-4-yl)methyl]-5H-pyrido[3,2-b]indol-7-yl]-2-methylpropan-2-ol] and `Cc1nnn(C)c1-c1cnc2c3cc(CC(C)(C)O)ccc3n([C@H](c3ccccc3)C3CCOCC3)c2c1` [Example 255, 1-[3-(Dimethyl-1H-1,2,3-triazol-5-yl)-5-[(S)-oxan-4-yl(phenyl)methyl]-5H-pyrido[3,2-b]indol-8-yl]-2-methylpropan-2-ol] cannot be ordered by IC50: < 5 nM for the first, < 5 nM for the second.

`Cc1nnn(C)c1-c1cnc2c3cc(F)c(C(C)(O)C4CC4)cc3n([C@H](c3ccccc3F)C3CCOCC3)c2c1` (single isomer, unassigned) [Example 447] and `Cc1nnn(C)c1-c1cnc2c3ccc([C@@](C)(O)C4CC4)c(F)c3n([C@H](c3ccccc3)C3CCOCC3)c2c1` [Example 431, (1S)-1-Cyclopropyl-1-[3-(dimethyl-1H-1,2,3-triazol-5-yl)-6-fluoro-5-[(S)-oxan-4-yl(phenyl)methyl]-5H-pyrido[3,2-b]indol-7-yl]ethan-1-ol] cannot be ordered by IC50: < 5 nM for the first, < 5 nM for the second.

`Cc1noc(C)c1-c1cnc2c3ccc(C(C)(C)O)cc3n(C(c3cc(F)cc(F)c3)C3CCOCC3)c2c1` (single isomer, unassigned) [Example 129, 2-{5-[(3,5-Difluorophenyl)(oxan-4-yl)methyl]-3-(dimethyl-1,2-oxazol-4-yl)-5H-pyrido[3,2-b]indol-7-yl}propan-2-ol] and `Cc1noc(C)c1-c1cnc2c3ccc(C(C)(C)O)cc3n(C(c3ccc(F)c(F)c3)C3CCOCC3)c2c1` (single isomer, unassigned) [Example 142, 2-{5-[(3,4-Difluorophenyl)(oxan-4-yl)methyl]-3-(dimethyl-1,2-oxazol-4-yl)-5H-pyrido[3,2-b]indol-7-yl}propan-2-ol] cannot be ordered by IC50: < 1500 nM for the first, < 5 nM for the second.

`Cc1nnn(C)c1-c1cnc2c3ccc(C(C)(C)O)cc3n(C(c3cc(Cl)ccn3)C3CCOCC3)c2c1` (single isomer, unassigned) [Example 298] and `Cc1nnn(C)c1-c1cnc2c3ccc(C(C)(C)O)cc3n([C@@H](c3ccccn3)C3CCOCC3)c2c1` [Example 63] cannot be ordered by IC50: < 25 nM for the first, < 25 nM for the second.

`CCc1nnn(C)c1-c1cnc2c3ccc(C(C)(C)O)cc3n([C@H](c3ccccc3)C3CCOCC3)c2c1` [Example 388, 2-[3-(4-Ethyl-1-methyl-1H-1,2,3-triazol-5-yl)-5-[(S)-oxan-4-yl(phenyl)methyl]-5H-pyrido[3,2-b]indol-7-yl]propan-2-ol] and `CCOc1nnn(C)c1-c1cnc2c3ccc(C(C)(C)O)cc3n([C@H](c3ccccc3)C3CCOCC3)c2c1` [Example 382, 2-[3-(4-Ethoxy-1-methyl-1H-1,2,3-triazol-5-yl)-5-[(S)-oxan-4-yl(phenyl)methyl]-5H-pyrido[3,2-b]indol-7-yl]propan-2-ol] cannot be ordered by IC50: < 5 nM for the first, < 5 nM for the second.

`[2H]C([2H])([2H])c1nnn(C)c1-c1cnc2c3ccc(C(C)(C)O)c(F)c3n(C(c3ccc(F)cc3F)C3CCOCC3)c2c1` (stereo not drawn) [Example 283, 2-{5-[(2,4-Difluorophenyl)(oxan-4-yl)methyl]-6-fluoro-3-[4-(^2H3)methyl-1-methyl-1H-1,2,3-triazol-5-yl]-5H-pyrido[3,2-b]indol-7-yl}propan-2-ol] and `Cc1nnn(C)c1-c1cnc2c3ccc(C(C)(C)F)c(F)c3n([C@H](c3ccccc3)C3CCOCC3)c2c1` [Example 352, 5-[6-Fluoro-7-(2-fluoropropan-2-yl)-5-[(S)-oxan-4-yl(phenyl)methyl]-5H-pyrido[3,2-b]indol-3-yl]-1,4-dimethyl-1H-1,2,3-triazole] cannot be ordered by IC50: < 5 nM for the first, < 25 nM for the second.

`Cn1nncc1-c1cnc2c3ccc(C(C)(C)O)cc3n(C(c3ccc(F)cc3)C3CCOCC3)c2c1` (single isomer, unassigned) [Example 67, 2-{5-[(4-Fluorophenyl)(oxan-4-yl)methyl]-3-(1-methyl-1H-1,2,3-triazol-5-yl)-5H-pyrido[3,2-b]indol-7-yl}propan-2-ol] and `Cn1nnc(C2CC2)c1-c1cnc2c3ccc(C(C)(C)O)cc3n([C@H](c3ccccc3)C3CCOCC3)c2c1` [Example 385, 2-[3-(4-Cyclopropyl-1-methyl-1H-1,2,3-triazol-5-yl)-5-[(S)-oxan-4-yl(phenyl)methyl]-5H-pyrido[3,2-b]indol-7-yl]propan-2-ol] cannot be ordered by IC50: < 25 nM for the first, < 5 nM for the second.

`C=C(C)c1ccc2c3ncc(-c4c(C)nnn4C)cc3n([C@H](c3ccccc3)C3CCOCC3)c2c1CO` [Example 356, [3-(Dimethyl-1H-1,2,3-triazol-5-yl)-5-[(S)-oxan-4-yl(phenyl)methyl]-7-(prop-1-en-2-yl)-5H-pyrido[3,2-b]indol-6-yl]methanol] and `Cc1nnn(C)c1-c1cnc2c3ccc(C(C)(O)C4CC4)cc3n([C@H](c3ccccc3)C3CCOCC3)c2c1` (single isomer, unassigned) [Example 422] cannot be ordered by IC50: < 5 nM for the first, < 5 nM for the second.

`Cc1nnn(C)c1-c1cnc2c3ccc(C(C)(C)O)cc3n(C(CC3CC3)C3CCOCC3)c2c1` (single isomer, unassigned) [Example 394] and `Cc1cc(C(C2CCOCC2)n2c3cc(C(C)(C)O)ccc3c3ncc(-c4c(C)nnn4C)cc32)n(C)n1` (single isomer, unassigned) [Example 342, 2-[3-(Dimethyl-1H-1,2,3-triazol-5-yl)-5-[(1,3-dimethyl-1H-pyrazol-5-yl)(oxan-4-yl)methyl]-5H-pyrido[3,2-b]indol-7-yl]propan-2-ol] cannot be ordered by IC50: < 5 nM for the first, < 25 nM for the second.

`Cc1nnn(C)c1-c1cnc2c3c(F)ccc(S(C)(=O)=O)c3n([C@H](c3ccccc3)C3CCOCC3)c2c1` [Example 181, 5-{9-Fluoro-6-methanesulfonyl-5-[(S)-oxan-4-yl(phenyl)methyl]-5H-pyrido[3,2-b]indol-3-yl}-1,4-dimethyl-1H-1,2,3-triazole] and `[2H]C([2H])([2H])c1nnn(C)c1-c1cnc2c3c(NCC(C)(C)N)ccc(S(C)(=O)=O)c3n([C@H](c3ccccc3)C3CCOCC3)c2c1` [Example 226, N-(2-Amino-2-methylpropyl)-6-methanesulfonyl-3-[4-(^2H3)methyl-1-methyl-1H-1,2,3-triazol-5-yl]-5-[(S)-oxan-4-yl(phenyl)methyl]-5H-pyrido[3,2-b]indol-9-amine] cannot be ordered by IC50: < 5 nM for the first, < 5 nM for the second.

`Cc1noc(C)c1-c1cnc2c3ccc(C(C)(C)O)cc3n(C(c3ccccc3F)C3CCOCC3)c2c1` (single isomer, unassigned) [Example 149, 2-[3-(Dimethyl-1,2-oxazol-4-yl)-5-[(2-fluorophenyl)(oxan-4-yl)methyl]-5H-pyrido[3,2-b]indol-7-yl]propan-2-ol] and `Cc1noc(C)c1-c1cnc2c3ccc(C(=O)O)cc3n(C(c3ccccc3)C3CCOCC3)c2c1` (stereo not drawn) [Example 44, 3-(Dimethyl-1,2-oxazol-4-yl)-5-[oxan-4-yl(phenyl)methyl]-5H-pyrido[3,2-b]indole-7-carboxylic acid] cannot be ordered by IC50: < 5 nM for the first, < 5 nM for the second.

`Cc1nnn(C)c1-c1cnc2c3cc(F)c(C(C)(O)C4CC4)cc3n([C@H](c3ccccc3F)C3CCOCC3)c2c1` (single isomer, unassigned) [Example 448] and `Cc1nnn(C)c1-c1cnc2c3ccc(C(C)(C)O)cc3n(C(c3cc(F)cc(F)c3)C3CCOCC3)c2c1` (single isomer, unassigned) [Example 99, 2-{5-[(3,5-Difluorophenyl)(oxan-4-yl)methyl]-3-(dimethyl-1H-1,2,3-triazol-5-yl)-5H-pyrido[3,2-b]indol-7-yl}propan-2-ol] cannot be ordered by IC50: < 5 nM for the first, < 5 nM for the second.

`Cc1nnn(C)c1-c1cnc2c3c(F)cc(C(C)(C)O)cc3n(C(c3c(F)cc(F)cc3F)C3CCOCC3)c2c1` (single isomer, unassigned) [Example 105, 2-[3-(Dimethyl-1H-1,2,3-triazol-5-yl)-9-fluoro-5-[oxan-4-yl(2,4,6-trifluorophenyl)methyl]-5H-pyrido[3,2-b]indol-7-yl]propan-2-ol] and `[2H]C([2H])([2H])c1nnn(C)c1-c1cnc2c3cc(F)c(C(C)(C)O)cc3n(C(c3cc(OC)ccn3)C3CCOCC3)c2c1` (single isomer, unassigned) [Example 326] cannot be ordered by IC50: < 5 nM for the first, < 25 nM for the second.

`CCC(CC)n1c2cc(C(C)(C)O)ccc2c2ncc(-c3c(C)noc3C)cc21` [Example 4] and `Cc1nnn(C)c1-c1cnc2c3ccc(C(C)(C)O)cc3n(Cc3ccccc3)c2c1` [Example 69, 2-[5-Benzyl-3-(dimethyl-1H-1,2,3-triazol-5-yl)-5H-pyrido[3,2-b]indol-7-yl]propan-2-ol] cannot be ordered by IC50: < 25 nM for the first, < 5 nM for the second.

In the case of `Cc1noc(C)c1-c1cnc2c3ccc(S(C)(=O)=O)cc3n(C(CCC(F)(F)F)c3ccccc3)c2c1` (single isomer, unassigned) [Example 39, 4-[7-Methanesulfonyl-5-(4,4,4-trifluoro-1-phenylbutyl)-5H-pyrido[3,2-b]indol-3-yl]-3,5-dimethyl-1,2-oxazole], the IC50 is reported as < 1500 nM.

— patent US10112941B2, “Tricyclic compounds as anticancer agents” (BRISTOL-MYERS SQUIBB COMPANY, priority 2013, dated 2018)
